Source: the NIST ThermoML archive (doi:10.1016/j.fluid.2015.03.015)
Several values for one entry are separate records, joined by “and”; a condition that tells them apart may be missing. Identical values can stand only once. ± gives the expanded uncertainty stated by the source.

Assay: refractive index (other wavelength) (dimensionless); xn = mol fraction of the nth substance listed

CCCCCCCC[n+]1ccn(C)c1.F[B-](F)(F)F [1-methyl-3-octylimidazolium tetrafluoroborate] + CCCCCCCO
Minimum deviation
Conditions | refractive index
307.36 K, Liquid mixture 2, Wavelength=623.8 nm, x1 = 0.199 | 1.4211 ± 0.0003
307.39 K, Liquid mixture 1, Wavelength=623.8 nm, x1 = 0.089 | 1.4194 ± 0.0003
307.39 K, Liquid mixture 2, Wavelength=623.8 nm, x1 = 0.193 | 1.421 ± 0.0003
307.41 K, Liquid mixture 1, Wavelength=623.8 nm, x1 = 0.09 | 1.4194 ± 0.0003
307.41 K, Liquid mixture 2, Wavelength=623.8 nm, x1 = 0.186 | 1.4209 ± 0.0003
307.44 K, Liquid mixture 1, Wavelength=623.8 nm, x1 = 0.096 | 1.4195 ± 0.0003
307.44 K, Liquid mixture 2, Wavelength=623.8 nm, x1 = 0.187 | 1.4209 ± 0.0003
307.45 K, Liquid mixture 1, Wavelength=623.8 nm, x1 = 0.097 | 1.4195 ± 0.0003
307.45 K, Liquid mixture 2, Wavelength=623.8 nm, x1 = 0.18 | 1.4208 ± 0.0003
307.47 K, Liquid mixture 1, Wavelength=623.8 nm, x1 = 0.097 | 1.4195 ± 0.0003
307.47 K, Liquid mixture 2, Wavelength=623.8 nm, x1 = 0.181 | 1.4208 ± 0.0003
307.48 K, Liquid mixture 1, Wavelength=623.8 nm, x1 = 0.097 | 1.4195 ± 0.0003
307.48 K, Liquid mixture 2, Wavelength=623.8 nm, x1 = 0.174 | 1.4207 ± 0.0003
307.49 K, Liquid mixture 1, Wavelength=623.8 nm, x1 = 0.104 | 1.4196 ± 0.0003
307.49 K, Liquid mixture 2, Wavelength=623.8 nm, x1 = 0.175 | 1.4207 ± 0.0003
307.5 K, Liquid mixture 1, Wavelength=623.8 nm, x1 = 0.104 | 1.4196 ± 0.0003
307.5 K, Liquid mixture 2, Wavelength=623.8 nm, x1 = 0.168 | 1.4206 ± 0.0003
307.51 K, Liquid mixture 1, Wavelength=623.8 nm, x1 = 0.104 | 1.4196 ± 0.0003
307.51 K, Liquid mixture 2, Wavelength=623.8 nm, x1 = 0.168 | 1.4206 ± 0.0003
307.52 K, Liquid mixture 1, Wavelength=623.8 nm, x1 = 0.104 | 1.4196 ± 0.0003
307.52 K, Liquid mixture 1, Wavelength=623.8 nm, x1 = 0.111 | 1.4197 ± 0.0003
307.52 K, Liquid mixture 2, Wavelength=623.8 nm, x1 = 0.155 | 1.4204 ± 0.0003
307.52 K, Liquid mixture 2, Wavelength=623.8 nm, x1 = 0.162 | 1.4205 ± 0.0003 and 1.4205 ± 0.0005
307.53 K, Liquid mixture 1, Wavelength=623.8 nm, x1 = 0.111 | 1.4197 ± 0.0003
307.53 K, Liquid mixture 1, Wavelength=623.8 nm, x1 = 0.117 | 1.4198 ± 0.0003 and 1.4198 ± 0.0004
307.53 K, Liquid mixture 2, Wavelength=623.8 nm, x1 = 0.149 | 1.4203 ± 0.0003
307.53 K, Liquid mixture 2, Wavelength=623.8 nm, x1 = 0.155 | 1.4204 ± 0.0003

85 kPa, Liquid, Wavelength=632.8 nm, Minimum Deviation
Conditions | refractive index
307.74 K, x1 = 0.2 | 1.421 ± 0.0003
307.74 K, x1 = 0.3 | 1.4225 ± 0.0003
308 K, x1 = 0.399 | 1.4235 ± 0.0003
308.01 K, x1 = 0.1 | 1.4195 ± 0.0003
308.5 K, x1 = 0.7 | 1.4265 ± 0.0003
308.52 K, x1 = 0.6 | 1.4256 ± 0.0003
308.6 K, x1 = 0.5 | 1.4245 ± 0.0003
308.63 K, x1 = 0.8 | 1.4274 ± 0.0003
309.13 K, x1 = 0.3 | 1.422 ± 0.001
309.27 K, x1 = 0.898 | 1.428 ± 0.0003
309.33 K, x1 = 0.2 | 1.4204 ± 0.0003
309.52 K, x1 = 0.1 | 1.4189 ± 0.0003
309.56 K, x1 = 0.399 | 1.423 ± 0.001
310.16 K, x1 = 0.5 | 1.424 ± 0.0003
310.34 K, x1 = 0.7 | 1.426 ± 0.0003
310.34 K, x1 = 0.8 | 1.4269 ± 0.0003
310.75 K, x1 = 0.3 | 1.4214 ± 0.0003
310.81 K, x1 = 0.6 | 1.4249 ± 0.0003
310.88 K, x1 = 0.2 | 1.4199 ± 0.0003
311.04 K, x1 = 0.1 | 1.4183 ± 0.0003
311.13 K, x1 = 0.399 | 1.4225 ± 0.0003
311.28 K, x1 = 0.898 | 1.4274 ± 0.0003
311.69 K, x1 = 0.5 | 1.4235 ± 0.0003
312.29 K, x1 = 0.3 | 1.4209 ± 0.0003
312.54 K, x1 = 0.2 | 1.4193 ± 0.0003
312.58 K, x1 = 0.1 | 1.4178 ± 0.0003
312.73 K, x1 = 0.6 | 1.4243 ± 0.0003
313.03 K, x1 = 0.399 | 1.4219 ± 0.0003
313.17 K, x1 = 0.5 | 1.4231 ± 0.0003
313.86 K, x1 = 0.3 | 1.4204 ± 0.0003
314.02 K, x1 = 0.2 | 1.4188 ± 0.0003
314.06 K, x1 = 0.1 | 1.4172 ± 0.0003
314.31 K, x1 = 0.399 | 1.4214 ± 0.0003
314.64 K, x1 = 0.6 | 1.4237 ± 0.0003
315.45 K, x1 = 0.3 | 1.4198 ± 0.0003
315.63 K, x1 = 0.1 | 1.4166 ± 0.0003
315.63 K, x1 = 0.2 | 1.4183 ± 0.0003
316.32 K, x1 = 0.399 | 1.4208 ± 0.0003
316.32 K, x1 = 0.6 | 1.4232 ± 0.0003
